# Results taken from patent US10052331B2, “3-(3H-imidazo[4,5-C]pyridin-2-yl)-1H-pyrazolo[3,4-C]pyridine and therapeutic uses thereof” (Samumed, LLC, priority 2014, dated 2018).
# Assays:
# [1] = system: primary human fibroblasts derived from IPF patients (LL29 cells); test: Inhibition of fibrotic process: αSMA staining in TGF-β1-treated primary human fibroblasts from IPF patients (LL29 cells); type: cell-based; details: Fibroblast, 96 h, LL29 cells treated with TGF-β1 (20 ng/mL), 4 days, 11-point dose-response from 10 μM to 1.87 nM, read-out: Inhibition of fibrosis EC50
# Text: The above synthesized compounds were screened using primary human fibroblasts (derived from IPF patients) treated with TGF-β1 to determine their ability to inhibit the fibrotic process.
# Primary human fibroblasts derived from IPF patients (LL29 cells) [^1Xiaoqiu Liu, et. al., “Fibrotic Lung Fibroblasts Show Blunted Inhibition by cAMP Due to Deficient cAMP Response Element-Binding Protein Phosphorylation”, Journal of Pharmacology and Experimental Therapeutics (2005), 315(2), 678-687; ^2Watts, K. L., et. al., “RhoA signaling modulates cyclin D1 expression in human lung fibroblasts; implications for idiopathic pulmonary fibrosis”, Respiratory Research (2006), 7(1), 88] were obtained from American Type Culture Collection (ATCC) and expanded in F12 medium supplemented with 15% Fetal Bovine Serum and Penicillin/Streptomycin.
# Each compound was dissolved in DMSO as a 10 mM stock and used to prepare compound source plates. Serial dilution (1:2, 11-point dose-response curves from 10 μM to 1.87 nM) and compound transfer was performed using the ECHO 550 (Labcyte, Sunnyvale, Calif.) into 384-well clear bottom assay plates (Greiner Bio-One) with appropriate DMSO backfill for a final DMSO concentration of 0.1%. LL29 cells were plated at 1,500 cells/well in 80 μl/well F12 medium supplemented with 1% Fetal Bovine Serum. One hour after addition of the cells, TGF-β1 (Peprotech; 20 ng/mL) was added to the plates to induce fibrosis (ref. 1 and 2 above). Wells treated with TGF-β1 and containing DMSO were used as controls. Cells were incubated at 37° C. and 5% CO2 for 4 days. Following incubation for 4 days, SYTOX green nucleic acid stain (Life Technologies [Thermo Fisher Scientific]) was added to the wells at a final concentration of 1 uM and incubated at room temperature for 30 min. Cells were then fixed using 4% formaldehyde (Electron Microscopy Sciences), washed 3 times with PBS followed by blocking and permeabilization using 3% Bovine Serum Albumin (BSA; Sigma) and 0.3% Triton X-100 (Sigma) in PBS. Cells were then stained with antibody specific to α-smooth muscle actin (αSMA; Abcam) (ref. 1 and 2 above) in 3% Bovine Serum Albumin (BSA; Sigma) and 0.3% Triton X-100 (Sigma) in PBS, and incubated overnight at 4° C. Cells were then washed 3 times with PBS, followed by incubation with Alexa Flor-647 conjugated secondary antibody (Life Technologies [Thermo Fisher Scientific]) and DAPI at room temperature for 1 hour. Cells were then washed 3 times with PBS and plates were sealed for imaging. αSMA staining was imaged by excitation at 630 nm and emission at 665 nm and quantified using the Compartmental Analysis program on the CellInsight CX5 (Thermo Scientific). Dead or apoptotic cells were excluded from analysis based on positive SYTOX green staining. % of total cells positive for αSMA were counted in each well and normalized to the average of 11 wells treated with TGF-β1 on the same plate using Dotmatics' Studies Software. The normalized averages (fold change over untreated) of 3 replicate wells for each compound concentration were used to create dose-responses curves and EC50 values were calculated using non-linear regression curve fit in the Dotmatics' Studies Software. The EC50 values are reported.
# [2] = system: Wnt activity (Wnt-responsive Sp5 promoter-luciferase reporter in SW480 cells); test: Wnt activity screening assay: Sp5-Luc reporter gene in SW480 colon carcinoma cells; type: cell-based; details: Homo sapiens
# Text: The screening assay for Wnt activity is described as follows. Reporter cell lines can be generated by stably transducing cancer cell lines (e.g., colon cancer) or primary cells (e.g., IEC-6 intestinal cells) with a lentiviral construct that includes a Wnt-responsive promoter driving expression of the firefly luciferase gene.
# SW480 colon carcinoma cells were transduced with a lentiviral vector expressing luciferase with a human Sp5 promoter consisting of a sequence of eight TCF/LEF binding sites. SW480 cells stably expressing the Sp5-Luc reporter gene and a hygromycin resistance gene were selected by treatment with 150 μg/ml of hygromycin for 7 days. These stably transduced SW480 cells were expanded in cell culture and used for all further screening activities. For Sp5-Luc reporter gene assays, the cells were plated at 10,000 cells/well in 96-well plates with growth medium containing 10% fetal calf serum and incubated overnight at 37° C. and 5% CO2. Each compound was dissolved in DMSO as a 10 mM stock in standard j-vials and used to prepare compound source plates in dose-response format with 3-fold serial dilutions and a 10 mM top concentration. Compound transfer from serially diluted source plates to assay plates containing the cells was accomplished using a pintool (Multimek 96, Beckman equipped with V&P Scientific FP1S50H pins) based liquid handling protocol. This protocol used a slotted pin to transfer 50 nl of compound from a source plate well to an assay plate well containing 50 μl of cells in growth medium. […] Control wells received 50 nl of DMSO treatment for normalization and calculating IC50 values. The treated cells were incubated at 37° C. and 5% CO2 for an additional forty-two hours. Following incubation, the growth medium was removed and 50 μl of BrightGlo luminescence reagent (Promega) was added to each well of the 96-well assay plates. The plates were placed on an orbital shaker for 5 min and then luminescence was quantified on the Victor3 (Perkin Elmer) plate reader. Readings were normalized to DMSO only treated cells, and normalized activities were utilized for IC50 calculations using the dose-response log (inhibitor) vs. response-variable slope (four parameters) nonlinear regression feature available in GraphPad Prism 5.0 or 6.0.
Compound,EC50 [1],IC50 [2]
"CN(C)c1cncc(-c2cc3c(-c4nc5c(-c6cccc(F)c6)cncc5[nH]4)n[nH]c3cn2)c1 [Compound 7, 5-(3-(7-(3-Fluorophenyl)-3H-imidazo[4,5-c]pyridin-2-yl)-1H-pyrazolo[3,4-c]pyridin-5-yl)-N,N-dimethylpyridin-3-amine]",≤ 0.009 µM,0.0718 µM
"CC(C)(C)C(=O)Nc1cncc(-c2cc3c(-c4nc5c(-c6cccc(F)c6)cncc5[nH]4)n[nH]c3cn2)c1 [Compound 8, N-(5-(3-(7-(3-Fluorophenyl)-3H-imidazo[4,5-c]pyridin-2-yl)-1H-pyrazolo[3,4-c]pyridin-5-yl)pyridin-3-yl)pivalamide]",0.047 µM,0.0411 µM
"CN(C)Cc1cncc(-c2cc3c(-c4nc5c(-c6cccc(F)c6)cncc5[nH]4)n[nH]c3cn2)c1 [Compound 13, 1-(5-(3-(7-(3-Fluorophenyl)-3H-imidazo[4,5-c]pyridin-2-yl)-1H-pyrazolo[3,4-c]pyridin-5-yl)pyridin-3-yl)-N,N-dimethylmethanamine]",≤ 0.009 µM,0.0801 µM
"CCCCC(=O)Nc1cncc(-c2cc3c(-c4nc5c(-c6cccc(F)c6)cncc5[nH]4)n[nH]c3cn2)c1 [Compound 18, N-(5-(3-(7-(3-Fluorophenyl)-3H-imidazo[4,5-c]pyridin-2-yl)-1H-pyrazolo[3,4-c]pyridin-5-yl)pyridin-3-yl)pentanamide]",0.143 µM,0.0294 µM
"Fc1cccc(-c2cncc3[nH]c(-c4n[nH]c5cnc(-c6cncc(CN7CCC(F)(F)C7)c6)cc45)nc23)c1 [Compound 25, 5-(5-((3,3-Difluoropyrrolidin-1-yl)methyl)pyridin-3-yl)-3-(7-(3-fluorophenyl)-3H-imidazo[4,5-c]pyridin-2-yl)-1H-pyrazolo[3,4-c]pyridine]",≤ 0.009 µM,0.0311 µM
"Fc1ccc(-c2cncc3[nH]c(-c4n[nH]c5cnc(-c6cncc(CN7CCCC7)c6)cc45)nc23)cc1 [Compound 40, 3-(7-(4-Fluorophenyl)-3H-imidazo[4,5-c]pyridin-2-yl)-5-(5-(pyrrolidin-1-ylmethyl)pyridin-3-yl)-1H-pyrazolo[3,4-c]pyridine]",1.77 µM,1.06 µM
"CCCC(=O)Nc1cncc(-c2cc3c(-c4nc5c(-c6ccc(F)cc6)cncc5[nH]4)n[nH]c3cn2)c1 [Compound 43, N-(5-(3-(7-(4-Fluorophenyl)-3H-imidazo[4,5-c]pyridin-2-yl)-1H-pyrazolo[3,4-c]pyridin-5-yl)pyridin-3-yl)butyramide]",0.076 µM,0.0767 µM
"CCCCC(=O)Nc1cncc(-c2cc3c(-c4nc5c(-c6ccc(F)cc6)cncc5[nH]4)n[nH]c3cn2)c1 [Compound 44, N-(5-(3-(7-(4-Fluorophenyl)-3H-imidazo[4,5-c]pyridin-2-yl)-1H-pyrazolo[3,4-c]pyridin-5-yl)pyridin-3-yl)pentanamide]",0.075 µM,0.165 µM
"Fc1ccc(-c2cncc3[nH]c(-c4n[nH]c5cnc(-c6cncnc6)cc45)nc23)cc1 [Compound 52, 3-(7-(4-Fluorophenyl)-3H-imidazo[4,5-c]pyridin-2-yl)-5-(pyrimidin-5-yl)-1H-pyrazolo[3,4-c]pyridine]",1.2 µM,0.179 µM
"Nc1cncc(-c2cc3c(-c4nc5c(-c6ccccc6F)cncc5[nH]4)n[nH]c3cn2)c1 [Compound 55, 5-(3-(7-(2-Fluorophenyl)-3H-imidazo[4,5-c]pyridin-2-yl)-1H-pyrazolo[3,4-c]pyridin-5-yl)pyridin-3-amine]",≤ 0.009 µM,0.0704 µM
"CCNCc1cncc(-c2cc3c(-c4nc5c(-c6ccccc6F)cncc5[nH]4)n[nH]c3cn2)c1 [Compound 58, N-((5-(3-(7-(2-Fluorophenyl)-3H-imidazo[4,5-c]pyridin-2-yl)-1H-pyrazolo[3,4-c]pyridin-5-yl)pyridin-3-yl)methyl)ethanamine]",0.041 µM,0.0402 µM
"CC(C)(C)C(=O)Nc1cncc(-c2cc3c(-c4nc5c(-c6ccccc6F)cncc5[nH]4)n[nH]c3cn2)c1 [Compound 60, N-(5-(3-(7-(2-Fluorophenyl)-3H-imidazo[4,5-c]pyridin-2-yl)-1H-pyrazolo[3,4-c]pyridin-5-yl)pyridin-3-yl)pivalamide]",≥ 9.99 µM,0.047 µM
"CCCC(=O)Nc1cncc(-c2cc3c(-c4nc5c(-c6ccccc6F)cncc5[nH]4)n[nH]c3cn2)c1 [Compound 69, N-(5-(3-(7-(2-Fluorophenyl)-3H-imidazo[4,5-c]pyridin-2-yl)-1H-pyrazolo[3,4-c]pyridin-5-yl)pyridin-3-yl)butyramide]",0.044 µM,0.0703 µM
"O=C(Nc1cncc(-c2cc3c(-c4nc5c(-c6ccccc6F)cncc5[nH]4)n[nH]c3cn2)c1)C1CCC1 [Compound 72, N-(5-(3-(7-(2-Fluorophenyl)-3H-imidazo[4,5-c]pyridin-2-yl)-1H-pyrazolo[3,4-c]pyridin-5-yl)pyridin-3-yl)cyclobutanecarboxamide]",≤ 0.009 µM,0.144 µM
"O=C(Nc1cncc(-c2cc3c(-c4nc5c(-c6ccccc6F)cncc5[nH]4)n[nH]c3cn2)c1)C1CCCC1 [Compound 73, N-(5-(3-(7-(2-Fluorophenyl)-3H-imidazo[4,5-c]pyridin-2-yl)-1H-pyrazolo[3,4-c]pyridin-5-yl)pyridin-3-yl)cyclopentanecarboxamide]",4.33 µM,0.155 µM
"CCC(=O)Nc1cncc(-c2cc3c(-c4nc5c(-c6cccnc6)cncc5[nH]4)n[nH]c3cn2)c1 [Compound 79, N-(5-(3-(7-(Pyridin-3-yl)-3H-imidazo[4,5-c]pyridin-2-yl)-1H-pyrazolo[3,4-c]pyridin-5-yl)pyridin-3-yl)propionamide]",0.018 µM,> 10 µM
"c1cncc(-c2cc3c(-c4nc5c(-c6cccnc6)cncc5[nH]4)n[nH]c3cn2)c1 [Compound 82, 5-(Pyridin-3-yl)-3-(7-(pyridin-3-yl)-3H-imidazo[4,5-c]pyridin-2-yl)-1H-pyrazolo[3,4-c]pyridine]",≥ 9.99 µM,> 10 µM
"c1cncc(-c2cncc3[nH]c(-c4n[nH]c5cnc(-c6cncc(CN7CCCCC7)c6)cc45)nc23)c1 [Compound 93, 5-(5-(Piperidin-1-ylmethyl)pyridin-3-yl)-3-(7-(pyridin-3-yl)-3H-imidazo[4,5-c]pyridin-2-yl)-1H-pyrazolo[3,4-c]pyridine]",≥ 9.99 µM,2.85 µM
"c1ccc(CNCc2cncc(-c3cc4c(-c5nc6c(-c7cccnc7)cncc6[nH]5)n[nH]c4cn3)c2)cc1 [Compound 101, N-Benzyl-1-(5-(3-(7-(pyridin-3-yl)-3H-imidazo[4,5-c]pyridin-2-yl)-1H-pyrazolo[3,4-c]pyridin-5-yl)pyridin-3-yl)methanamine]",≥ 9.99 µM,0.294 µM
